Data taken from PubChem BioAssay (NCI).
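Abbreviation: GI50, concentration required for 50% inhibition of growth. TGI: total growth inhibition.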

Columns and labels:
Assay in all cases: inhibition of tumour cell growth, NCI panel, 384-well format
UO-31 renal = test system: UO-31 renal
EKVX NSCLC = test system: EKVX NSCLC
NCI-H522 lung = test system: NCI-H522 lung
SNB-75 CNS = test system: SNB-75 CNS
OVCAR-8 ovarian = test system: OVCAR-8 ovarian
HCC-2998 colon = test system: HCC-2998 colon
NCI/ADR-RES ovarian = test system: NCI/ADR-RES ovarian
TK-10 renal = test system: TK-10 renal
SW-620 colon = test system: SW-620 colon
MDA-MB-435 melanoma = test system: MDA-MB-435 melanoma
ACHN renal = test system: ACHN renal
RXF 393 renal = test system: RXF 393 renal
786-0 renal = test system: 786-0 renal
SNB-19 CNS = test system: SNB-19 CNS
SN12C renal = test system: SN12C renal
M14 melanoma = test system: M14 melanoma
OVCAR-5 ovarian = test system: OVCAR-5 ovarian
MDA-MB-231 breast = test system: MDA-MB-231 breast
SK-MEL-28 melanoma = test system: SK-MEL-28 melanoma
T-47D breast = test system: T-47D breast
K-562 leukemia = test system: K-562 leukemia
LOX IMVI melanoma = test system: LOX IMVI melanoma
OVCAR-4 ovarian = test system: OVCAR-4 ovarian
MALME-3M melanoma = test system: MALME-3M melanoma
HL-60(TB) leukemia = test system: HL-60(TB) leukemia
DU-145 prostate = test system: DU-145 prostate
SF-539 CNS = test system: SF-539 CNS
SK-MEL-5 melanoma = test system: SK-MEL-5 melanoma
CCRF-CEM leukemia = test system: CCRF-CEM leukemia
SK-OV-3 ovarian = test system: SK-OV-3 ovarian
A549 NSCLC = test system: A549 NSCLC
U251 glioblastoma = test system: U251 glioblastoma
HT29 colon = test system: HT29 colon
UACC-257 melanoma = test system: UACC-257 melanoma
HCT-15 colon = test system: HCT-15 colon
NCI-H460 NSCLC = test system: NCI-H460 NSCLC
BT-549 breast = test system: BT-549 breast
HOP-92 NSCLC = test system: HOP-92 NSCLC
HOP-62 NSCLC = test system: HOP-62 NSCLC
HS 578T breast = test system: HS 578T breast
KM12 colon = test system: KM12 colon
MCF7 breast = test system: MCF7 breast
A498 renal = test system: A498 renal
OVCAR-3 ovarian = test system: OVCAR-3 ovarian
MOLT-4 leukemia = test system: MOLT-4 leukemia
MDA-MB-468 breast = test system: MDA-MB-468 breast
HCT-116 colon = test system: HCT-116 colon
PC-3 prostate = test system: PC-3 prostate
SF-295 CNS = test system: SF-295 CNS
NCI-H226 lung = test system: NCI-H226 lung
SF-268 CNS = test system: SF-268 CNS
IGROV1 ovarian = test system: IGROV1 ovarian
RPMI-8226 leukemia = test system: RPMI-8226 leukemia
NCI-H322M lung = test system: NCI-H322M lung
NCI-H23 lung = test system: NCI-H23 lung
UACC-62 melanoma = test system: UACC-62 melanoma
CAKI-1 renal = test system: CAKI-1 renal
COLO 205 colon = test system: COLO 205 colon

COc1cc2nc(-c3cc(F)ccc3O)nc(N[C@@H]3CNC[C@H]3C(C)(C)O)c2cc1OC
GI50 (UO-31 renal): 1810 nM | TGI (UO-31 renal): 3220 nM | GI50 (EKVX NSCLC): 1460 nM | TGI (EKVX NSCLC): 2790 nM | GI50 (NCI-H522 lung): 1040 nM | TGI (NCI-H522 lung): 2220 nM | GI50 (SNB-75 CNS): 1250 nM | TGI (SNB-75 CNS): 2510 nM | GI50 (OVCAR-8 ovarian): 1690 nM | TGI (OVCAR-8 ovarian): 3090 nM | GI50 (HCC-2998 colon): 970 nM | TGI (HCC-2998 colon): 2170 nM | GI50 (NCI/ADR-RES ovarian): 2240 nM | TGI (NCI/ADR-RES ovarian): 4990 nM | GI50 (TK-10 renal): 1630 nM | TGI (TK-10 renal): 3050 nM | GI50 (SW-620 colon): 1820 nM | TGI (SW-620 colon): 3240 nM | GI50 (MDA-MB-435 melanoma): 1950 nM | TGI (MDA-MB-435 melanoma): 3390 nM | GI50 (ACHN renal): 1750 nM | TGI (ACHN renal): 3180 nM | GI50 (RXF 393 renal): 1560 nM | TGI (RXF 393 renal): 2910 nM | GI50 ([…]-0 renal): 1530 nM | TGI (786-0 renal): 2870 nM | GI50 (SNB-19 CNS): 1790 nM | TGI (SNB-19 CNS): 3210 nM | GI50 (SN12C renal): 1480 nM | TGI (SN12C renal): 2810 nM | GI50 (M14 melanoma): 1830 nM | TGI (M14 melanoma): 3250 nM | GI50 (OVCAR-5 ovarian): 1670 nM | TGI (OVCAR-5 ovarian): 3110 nM | GI50 (MDA-MB-231 breast): 1400 nM | TGI (MDA-MB-231 breast): 2700 nM | GI50 (SK-MEL-28 melanoma): 2010 nM | TGI (SK-MEL-28 melanoma): 3440 nM | GI50 (T-47D breast): 2460 nM | TGI (T-47D breast): 3940 nM | GI50 (K-562 leukemia): 1270 nM | TGI (K-562 leukemia): 2550 nM | GI50 (LOX IMVI melanoma): 1390 nM | TGI (LOX IMVI melanoma): 2710 nM | GI50 (OVCAR-4 ovarian): 2390 nM | TGI (OVCAR-4 ovarian): 3880 nM | GI50 (MALME-3M melanoma): 1600 nM | TGI (MALME-3M melanoma): 2960 nM | GI50 (HL-60(TB) leukemia): 1820 nM | TGI (HL-60(TB) leukemia): 3240 nM | GI50 (DU-145 prostate): 1570 nM | TGI (DU-145 prostate): 2990 nM | GI50 (SF-539 CNS): 1260 nM | TGI (SF-539 CNS): 2540 nM | GI50 (SK-MEL-5 melanoma): 1500 nM | TGI (SK-MEL-5 melanoma): 2850 nM | GI50 (CCRF-CEM leukemia): 1410 nM | TGI (CCRF-CEM leukemia): 2730 nM | GI50 (SK-OV-3 ovarian): 1820 nM | TGI (SK-OV-3 ovarian): 3240 nM | GI50 (A549 NSCLC): 1510 nM | TGI (A549 NSCLC): 2910 nM | GI50 (U251 glioblastoma): 1860 nM | TGI (U251 glioblastoma): 3280 nM | GI50 (HT29 colon): 1650 nM | TGI (HT29 colon): 3060 nM | GI50 (UACC-257 melanoma): 1710 nM | TGI (UACC-257 melanoma): 3100 nM | GI50 (HCT-15 colon): 1910 nM | TGI (HCT-15 colon): 3370 nM | GI50 (NCI-H460 NSCLC): 1470 nM | TGI (NCI-H460 NSCLC): 2890 nM | GI50 (BT-549 breast): 1310 nM | TGI (BT-549 breast): 2590 nM | GI50 (HOP-92 NSCLC): 1150 nM | TGI (HOP-92 NSCLC): 2380 nM | GI50 (HOP-62 NSCLC): 1220 nM | TGI (HOP-62 NSCLC): 2490 nM | GI50 (HS 578T breast): 1740 nM | TGI (HS 578T breast): 3130 nM | GI50 (KM12 colon): 1340 nM | TGI (KM12 colon): 2640 nM | GI50 (MCF7 breast): 1570 nM | TGI (MCF7 breast): 2950 nM | GI50 (A498 renal): 1650 nM | TGI (A498 renal): 3020 nM | GI50 (OVCAR-3 ovarian): 1820 nM | TGI (OVCAR-3 ovarian): 3230 nM | GI50 (MOLT-4 leukemia): 1530 nM | TGI (MOLT-4 leukemia): 2870 nM | GI50 (MDA-MB-468 breast): 1770 nM | TGI (MDA-MB-468 breast): 3170 nM | GI50 (HCT-116 colon): 1110 nM | TGI (HCT-116 colon): 2370 nM | GI50 (PC-3 prostate): 1560 nM | TGI (PC-3 prostate): 2920 nM | GI50 (SF-295 CNS): 1880 nM | TGI (SF-295 CNS): 3300 nM | GI50 (NCI-H226 lung): 1400 nM | TGI (NCI-H226 lung): 2760 nM | GI50 (SF-268 CNS): 434 nM | TGI (SF-268 CNS): 1620 nM | GI50 (IGROV1 ovarian): 507 nM | TGI (IGROV1 ovarian): 1640 nM | GI50 (RPMI-8226 leukemia): 1830 nM | TGI (RPMI-8226 leukemia): 3250 nM | GI50 (NCI-H322M lung): 1630 nM | TGI (NCI-H322M lung): 3020 nM | GI50 (NCI-H23 lung): 1440 nM | TGI (NCI-H23 lung): 2770 nM | GI50 (UACC-62 melanoma): 1620 nM | TGI (UACC-62 melanoma): 2990 nM | GI50 (CAKI-1 renal): 1350 nM | TGI (CAKI-1 renal): 2660 nM | GI50 (COLO 205 colon): 1240 nM | TGI (COLO 205 colon): 2520 nM
